{"source": "patent US20260137689A1", "about": "“INTEGRATION OF MOLECULAR MECHANISMS IN THE STRIATUM AS A COMBINATION DRUG STRATEGY FOR THE TREATMENT OF PSYCHIATRIC AND NEUROLOGICAL DISORDERS IN WHICH ANHEDONIA OR MOTIVATION-RELATED DYSFUNCTION EXISTS” (Alto Neuroscience, Inc., priority 2021, published 2026)", "key": {"[1]": {"tested_on": "release of gamma-aminobutyric acid (GABA)", "details": "cited from earlier work"}, "[2]": {"tested_on": "D2 receptor", "details": "striatal slices from reserpinized rats (ref. 33); cited from earlier work"}, "[3]": {"tested_on": "C57/BL6 mice", "experiment": "Forced swim test", "format": "in vivo", "details": "FIG. 2 doses: imipramine 20 mg/kg, istradefylline 0.1 mg/kg, varenicline 0.17 mg/kg, alone or combined", "procedure": "FIG. 2 is a bar graph of the time during a forced swim test after treatment with saline, 20 mg/kg for imipramine, 0.1 mg/kg for istradefylline, 0.17 mg/kg for varenicline, and a combination of 0.1 mg/kg for istradefylline and 0.17 mg/kg for varenicline.\nWithout being bound by a particular theory, the inventors theorized that an increase in dopamine release, when coupled with A2A antagonism, could result in an antidepressant response-essentially aiming to replace direct D2 agonism with a drug that leads to its release and to an increase in D2/D3 receptor availability. […] Of note, however, varenicline has been approved in humans for smoking cessation, and initially carried a black box for increased risk for development of depression, a seemingly opposite outcome to our goal. To determine whether such a combination is viable, we conducted forced swim tests in C57/BL6 mice. […] One such example is 5 mg-40 mg of istradefylline together with 0.25-3 mg of varenicline.\nTo determine whether such a combination is viable, forced swim tests in C57/BL6 mice were conducted. The forced-swim test is used to assess depressive-like behavior in mice. The time spent immobile is considered a measure of depressive-like behavior. Immobility scores for each mouse were determined by manual scoring."}, "[4]": {"tested_on": "dopamine release", "details": "humans (ref. 44); cited from earlier work"}, "[5]": {"tested_on": "Parkinson's models", "details": "Parkinson's models (ref. 47); cited from earlier work"}, "[6]": {"tested_on": "dopamine release", "details": "rodents (ref. 43); cited from earlier work"}, "[7]": {"tested_on": "D2/D3 receptor", "details": "rodents (refs. 45, 46); cited from earlier work"}}, "note": "Where two headings read alike, the source gives them in different places."}
{"smiles": "NC(C(=O)O)c1cc(O)ccc1Cl", "note": "(racemic) [CHPG, (RS)-2-chloro-5-hydroxyphenylglycine]", "values": [{"measurement": "effect on GABA release by itself", "setting": "[1]; alone (ref. 38)", "value": "ineffective by itself"}, {"measurement": "effect on quinpirole-induced change of neuronal activity (GABA release)", "setting": "[1]; with the D2/D3 agonist quinpirole (ref. 38)", "value": "able to counteract the effects"}]}
{"smiles": "CCNC(=O)[C@H]1O[C@@H](n2cnc3c(N)nc(NCCc4ccc(CCC(=O)O)cc4)nc32)[C@H](O)[C@@H]1O", "note": "[CGS 21680]", "values": [{"measurement": "effect on affinity of the D2 receptor for the D2/D3 agonist quinpirole", "setting": "[2]", "value": "decreased the affinity"}]}
{"smiles": "Nc1nc(NCCc2ccc(O)cc2)nc2nc(-c3ccco3)nn12", "note": "[ZM 241385]", "values": [{"measurement": "effect on affinity of the D2 receptor for the D2/D3 agonist quinpirole", "setting": "[2]", "value": "increased the affinity"}]}
{"smiles": "CN(C)CCCN1c2ccccc2CCc2ccccc21", "note": "[imipramine]", "values": [{"measurement": "antidepressant response (time spent immobile) in forced swim test", "setting": "[3]", "value": "decrease in immobility"}]}
{"smiles": "c1cnc2cc3c(cc2n1)[C@@H]1CNC[C@H]3C1", "note": "[varenicline]", "values": [{"measurement": "dopamine release", "setting": "[4]", "value": "increase dopamine release"}, {"measurement": "motor functioning", "setting": "[5]", "value": "improve motor functioning"}, {"measurement": "antidepressant response (time spent immobile) in forced swim test", "setting": "[3]", "value": "by themselves ineffective"}, {"measurement": "dopamine release", "setting": "[6]", "value": "increase dopamine release"}, {"measurement": "D2/D3 receptor availability", "setting": "[7]", "value": "increase D2/D3 receptor availability"}]}
